Data on one molecule can be found in US20220054493A1, “INHIBITORS OF NGAL PROTEIN” (INSERM (INSTITUT NATIONAL DE LA SANTÉ ET DE LA RECHERCHE …, priority 2019, published 2022).

Data set [1] has as its system CKD Mouse Model. In words: Blood pressure in the CKD mouse model (subtotal nephrectomy). The format is in vivo, mice. To be noted: two months administration; FIG. 13. As for the experimental part:
Systolic BP was measured by tail-cuff plethysmography in trained conscious mice at weeks 8-10 using a BP2000 Visitech model. BP was measured every day in the same room at the same hour for 5 consecutive days. The BP measurements (expressed as mmHg) presented are the averages of the last 3 days
Chronic kidney disease (CKD) was induced by subtotal nephrectomy (Nx) in eight-weeks-old FVB male mice (25-26 g). All surgeries were performed under ketamine/xylazine anaesthesia. Briefly, the left kidney was exposed, and the upper and lower poles were tied with a poly-glycolic acid suture line. The peritoneum and skin were then sutured, and the animals were returned to their individual cages. After one week of recovery, the second kidney was removed. Removal of the second kidney represents TO. Sham mice were subjected to the same surgical procedures but neither renal poles nor the right kidney were removed. Mice were monitored for any sign of distress, and those observed to be experiencing severe, unrelievable pain were euthanized. Renal failure was assessed by the measure of plasma creatinine and urea with an automatic analyser (Konelab 20i; Thermo Fisher Scientific, Vernon Hills, Ill.) at weeks 4 and 10 post-Nx.

Data set [2] has as its target T1, NGAL (Homo sapiens, UniProt P80188).
T1 construct: purchased R&D Systems
Nature of the data set: NGAL-induced IL6 secretion in human cardiac fibroblasts (ELISA). The class given is cell-based. To be noted: NGAL 10 ng/ml, FIGS. 1 and 2 panel A. On the procedure:
(§1) Cell Culture Human cardiac fibroblasts (primary culture) were obtained from Promocell and maintained in medium (Fibroblast Media 3). Cells were cultured according to the manufacturer's instructions and used between passages 5 and 7. Cells were stimulated with aldosterone (10^-8 M, Sigma) or recombinant hNGAL (500 ng/mL, R&D Systems) for 24 h for protein analysis. Mouse kidney fibroblasts (MKF), were isolated from Wild Type (WT) mice. Briefly, mice 7 to 8 weeks were sacrificed by cervical dislocation and kidneys were cleaned and rinsed in cold DPBS (Dulbecco's Phosphate-Buffered Saline). The renal cortex was minced and incubated in Dulbecco's modified eagle medium/Nutrient mixture F-12 (DMEM/F12, Sigma) containing 1 mg/mL collagenase A (Roche) during 25 minutes at 37° C. The digestion was inactivated by adding culture medium (DMEM/F12+10% FBS) then the cell suspension was passed through a 100-μm cell strainer. After centrifugation, the pellet (containing MKF) was diluted with culture medium then plated in 75 cm^2 culture flask. After 24 hours MKF were washed with DPBS before replacement of fresh culture medium. Thereafter, culture medium was changed every 48 hours. Once 70-80% confluent, MKF were trypsinized and plated in 12 or 6-well plates. For experimental use, MKF were starved with culture medium containing only 3% FBS. MKF were treated with mNGAL (500 ng/mL, R&D Systems) for 24 h for gene expression analysis.
(§2) NGAL, IL6 and collagen type I concentrations were measured in cardiac tissue and cell supernatants, respectively, by ELISA according to the manufacturer's instructions (R&D Systems).
The inhibitory activity of the compounds was evaluated on the NGAL-induced IL6 secretion (NGAL 10 ng/ml) in human cardiac fibroblasts.
Inhibitory activities of 23 second generation compounds derived from GPZ614741 and GPZ058225 were evaluated on the NGAL-induced IL6 secretion (NGAL 10 ng/ml) in human cardiac fibroblasts.
On the technique in general: ELISA stands for enzyme-linked immunosorbent assay.

The test system of data set [3] is human microsomes. Nature of the data set: Stability in human microsomes. The format is in vitro ADME. On the procedure:
(§3) Two specific toxicity assays have been performed to assess hepatoxicity and cardiotoxicity. Hepatotoxicity was evaluated in isolated hepatocytes from swiss mice and determined by the MTT colorimetric assay. Cardiotoxicity was evaluated using the commercially available Predictor hERG fluorescence polarization kit (Thermo Fisher Scientific). Several ADME assays have been carried out on the compounds generated throughout the project. The following experiments were undertaken: Stability in human microsomes, binding to human plasma protein, and CYP3A4 inhibition assay (Vivid CYP3A4 assay, Thermo Fisher Scientific). Physico-chemical properties were also assessed such as aqueous solubility and chemical stability.

For data set [4], the target named is T1, NGAL. In words: NGAL-induced Col 1 secretion in human cardiac fibroblasts (ELISA). The class given is cell-based. Conditions: FIGS. 1 and 2 panel B. On the procedure:
as §1, with “After 24 hours MKF were washed with DPBS before replacement of fresh culture medium. Thereafter, culture medium was changed every 48 hours. Once 70-80% confluent, MKF were trypsinized and plated in 12 or 6-well plates. For experimental use, MKF were starved with culture medium containing only 3% FBS. MKF were treated with mNGAL (500 ng/mL, R&D Systems) for 24 h for gene expression analysis.” left out
as §2
The inhibitory activity of the compounds was evaluated on the NGAL-induced IL6 secretion (NGAL 10 ng/ml) in human cardiac fibroblasts. […]

Data set [5] deals with T2, CYP3A4 (Homo sapiens, UniProt P08684).
T2 construct: purchased Thermo Fisher Scientific
T2 sequence (P08684 whole entry): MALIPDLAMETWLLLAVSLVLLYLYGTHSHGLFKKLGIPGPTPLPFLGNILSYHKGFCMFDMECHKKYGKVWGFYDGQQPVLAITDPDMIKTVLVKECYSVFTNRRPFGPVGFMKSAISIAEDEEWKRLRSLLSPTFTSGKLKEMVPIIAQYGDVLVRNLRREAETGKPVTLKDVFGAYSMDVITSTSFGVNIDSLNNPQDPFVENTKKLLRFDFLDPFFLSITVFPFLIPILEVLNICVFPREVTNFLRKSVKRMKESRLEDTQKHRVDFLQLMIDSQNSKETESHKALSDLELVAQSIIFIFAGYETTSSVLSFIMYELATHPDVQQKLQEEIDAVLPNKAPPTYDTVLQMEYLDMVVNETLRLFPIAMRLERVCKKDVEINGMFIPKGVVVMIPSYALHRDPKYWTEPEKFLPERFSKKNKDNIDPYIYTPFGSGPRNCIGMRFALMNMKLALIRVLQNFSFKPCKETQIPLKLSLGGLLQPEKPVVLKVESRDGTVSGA
In words: CYP3A4 inhibition assay (Vivid CYP3A4 assay). The class given is in vitro ADME. On the procedure:
as §3

Data set [6] in a line: Chemical stability. The format is physicochemical. As for the experimental part:
as §3

The target in data set [7] is T3, recombinant murine NGAL (Mus musculus, UniProt P11672).
T3 construct: purchased R&D Systems
T3 sequence (P11672 21-200): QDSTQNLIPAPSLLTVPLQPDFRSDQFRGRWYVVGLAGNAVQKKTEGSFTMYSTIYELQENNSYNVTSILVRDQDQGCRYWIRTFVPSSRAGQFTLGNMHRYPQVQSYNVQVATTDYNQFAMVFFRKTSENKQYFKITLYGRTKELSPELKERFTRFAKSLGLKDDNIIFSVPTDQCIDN
In words: NGAL-induced profibrotic and proinflammatory gene expression in renal fibroblasts. Conditions: renal fibroblast cells stimulated with recombinant murine NGAL. The class given is cell-based. As for the experimental part: as §1, with “After 24 hours MKF were washed with DPBS before replacement of fresh culture medium. Thereafter, culture medium was changed every 48 hours. Once 70-80% confluent, MKF were trypsinized and plated in 12 or 6-well plates. For experimental use, MKF were starved with culture medium containing only 3% FBS. MKF were treated with mNGAL (500 ng/mL, R&D Systems) for 24 h for gene expression analysis.” left out
Frozen tissues (kidneys, heart) were homogenized in TRIzol (Life Technologies, 15596018) using FastPrep beads (MP-Bio, 6913-100). cDNAs were generated using the Superscript II reverse transcriptase kit (Invitrogen, 18064022), and qPCR was performed as previously described. Briefly, transcript levels were analysed in a CFX396 apparatus (Biorad). […]

Each structure is given as a SMILES string.

T1 sequence (P80188 21-198): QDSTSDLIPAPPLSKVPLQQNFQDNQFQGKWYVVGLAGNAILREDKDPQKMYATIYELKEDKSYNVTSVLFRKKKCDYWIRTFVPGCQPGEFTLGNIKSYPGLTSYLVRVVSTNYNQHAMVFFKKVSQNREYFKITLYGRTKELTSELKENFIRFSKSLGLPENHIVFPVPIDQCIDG

For the molecule `CC(=O)c1cccc(S(=O)(=O)NCc2ccccc2-n2cccn2)c1` [GPZ614741], the “increase of blood pressure induced by CKD” value in data set [1] is listed as “prevented the increase”. The “NGAL-induced IL6 secretion” value in data set [2] is given as “inhibited”. Also, in data set [3] (after 2 h), the “microsomes degradation, left after 2 h” value is 2.2%. Further, the “Micro Stability” value in data set [3] (human microsomes) turned out to be 2.19%. The “Col 1 secretion (NGAL-induced)” value in data set [4] is given as “inhibited”. Moreover, in data set [5], the “processing by CYP3A4” value is “partially processed”. Moreover, the Activity in data set [5] (human, recombinant CYP3A4 (Vivid CYP3A4 assay kit), 100 = no inhibition, read-out: CyP 3A4 Inhibition % (100 = no inhibition)) turned out to be 72.2 ± 1.94%. Moreover, in data set [6], the “Chemical Stability” value is on record as 103% and the “stability to acidic pH / digestive content” value is listed as “fully stable”. In addition, the “NGAL-induction of inflammatory (IL6, MCP1) gene expression” value in data set [7] (FIG. 16) was “inhibited”. Further, in data set [7] (FIG. 16A), the “NGAL-induction of profibrotic (Collagen1, fibronectin, aSMA) gene expression” value is given as “inhibited”.
